# Values of other authors as cited in PubChem BioAssay AID1259409 (Chemical Carcinogenesis Research Information System (CCRIS), 2018).
# Tested on: rodent chemically induced tumor inhibition, incidence and multiplicity
# Assay: CCRIS tumor inhibitor studies
# Details: Carcinogen: URETHANE; 51-79-6; Dose [Inhibitor]: 0.05 UMOL/G BW GIVEN AT 6 HR INTERVALS FOR 36 HR AFTER CARCINOGEN TREATMENT (STUDY DURATION: 5 MO); Route [Inhibitor]: INTRAPERITONEAL; Species: MOUSE; Strain/Sex: ICR/FEMALE; Target Tissue: Type of Lesion: LUNG: PAPILLARY ADENOMA; Dose [Carcinogen]: 0.1 MG/G BW ONCE; Promoter: NONE USED
smiles,measurement,value
O=c1[nH]c(=O)c2[nH]cnc2[nH]1,"tumour outcome (control, treated, inhibition, significance)","31/59 (53%), 26/40 (65%), -23%, not significant"
